Source: article PMC6211260 (Journal of Enzyme Inhibition and Medicinal Chemistry, 2018)
Where two headings read alike, the source gives them in different places.

Legend:
[1] = test system: Leukaemia cell lines; test: NCI five-dose testing, subpanel mean; type: cell-based; conditions: subpanel I: Leukaemia
Protocol: (§1) Screening against the cancer cell lines was carried out at the National Cancer Institute (NCI, Bethesda, Maryland, USA) applying the standard protocol of the NCI[22].

[2] = test system: prostate cancer cell lines; test: NCI five-dose testing, subpanel mean; type: cell-based; conditions: subpanel VIII: prostate cancer
Protocol: as §1

[3] = test system: melanoma cell lines; test: NCI five-dose testing, subpanel mean; type: cell-based; conditions: subpanel V: melanoma
Protocol: as §1

[4] = test system: breast cancer cell lines; test: NCI five-dose testing, subpanel mean; type: cell-based; conditions: subpanel IX: breast cancer
Protocol: as §1

[5] = test system: non-small cell lung cancer cell lines; test: NCI five-dose testing, subpanel mean; type: cell-based; conditions: subpanel II: non-small cell lung cancer
Protocol: as §1

[6] = test system: CNS cancer cell lines; test: NCI five-dose testing, subpanel mean; type: cell-based; conditions: subpanel IV: CNS cancer
Protocol: as §1

[7] = test system: colon cancer cell lines; test: NCI five-dose testing, subpanel mean; type: cell-based; conditions: subpanel III: colon cancer
Protocol: as §1

[8] = test system: ovarian cancer cell lines; test: NCI five-dose testing, subpanel mean; type: cell-based; conditions: subpanel VI: ovarian cancer
Protocol: as §1

[9] = test system: renal cancer cell lines; test: NCI five-dose testing, subpanel mean; type: cell-based; conditions: subpanel VII: renal cancer
Protocol: as §1

[10] = target: T1, BRAF (Homo sapiens, UniProt P15056); test: In vitro kinase screening (Kinase HotSpot); type: biochemical; conditions: single dose of 10 µM
T1 construct: purchased Reaction Biology Corp
Excerpt: (§2) To investigate the biological target of compound, Reaction Biology Corp. Kinase HotSpotSM service was used adopting standard assay protocol.

[11] = target: T2, P38a/MAPK14 (Homo sapiens, UniProt Q16539); test: In vitro kinase screening (Kinase HotSpot); type: biochemical; conditions: single dose of 10 µM, P38a/MAPK14
T2 construct: purchased Reaction Biology Corp
Excerpt: as §2

[12] = target: T3, IKKb/IKBKB (Homo sapiens, UniProt O14920); test: In vitro kinase screening (Kinase HotSpot); type: biochemical; conditions: single dose of 10 µM
T3 construct: purchased Reaction Biology Corp
T3 sequence (O14920 1-756): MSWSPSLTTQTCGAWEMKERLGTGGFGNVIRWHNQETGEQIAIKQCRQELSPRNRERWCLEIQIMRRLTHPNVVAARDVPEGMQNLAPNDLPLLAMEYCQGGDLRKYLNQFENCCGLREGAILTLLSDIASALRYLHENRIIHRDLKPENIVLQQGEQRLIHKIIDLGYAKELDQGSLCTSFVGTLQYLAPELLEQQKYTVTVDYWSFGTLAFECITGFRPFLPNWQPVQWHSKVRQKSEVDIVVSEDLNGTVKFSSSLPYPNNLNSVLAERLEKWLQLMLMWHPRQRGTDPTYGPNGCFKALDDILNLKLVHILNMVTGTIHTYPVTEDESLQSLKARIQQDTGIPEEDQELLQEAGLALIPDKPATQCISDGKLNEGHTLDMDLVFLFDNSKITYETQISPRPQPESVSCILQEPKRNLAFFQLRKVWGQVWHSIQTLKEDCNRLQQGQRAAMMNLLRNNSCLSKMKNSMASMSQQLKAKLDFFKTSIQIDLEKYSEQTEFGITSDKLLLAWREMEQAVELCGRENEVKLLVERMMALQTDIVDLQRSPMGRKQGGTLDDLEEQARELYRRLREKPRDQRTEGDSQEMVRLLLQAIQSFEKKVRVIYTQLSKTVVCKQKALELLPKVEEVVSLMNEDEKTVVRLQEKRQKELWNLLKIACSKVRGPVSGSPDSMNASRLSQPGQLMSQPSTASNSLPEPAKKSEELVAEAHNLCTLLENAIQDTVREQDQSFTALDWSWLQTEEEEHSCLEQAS
Excerpt: as §2

[13] = target: T4, JNK2 (Homo sapiens, UniProt P45984); test: In vitro kinase screening (Kinase HotSpot); type: biochemical; conditions: single dose of 10 µM
T4 construct: purchased Reaction Biology Corp
Excerpt: as §2

[14] = target: T5, EGFR (Homo sapiens, UniProt P00533); test: In vitro kinase screening (Kinase HotSpot); type: biochemical; conditions: single dose of 10 µM
T5 construct: purchased Reaction Biology Corp
Excerpt: as §2

[15] = target: T6, ABL1 (T315I) (Homo sapiens, UniProt P00519, T315I); test: In vitro kinase screening (Kinase HotSpot); type: biochemical; conditions: single dose of 10 µM
T6 construct: purchased Reaction Biology Corp
Excerpt: as §2

[16] = target: T7, JNK1 (Homo sapiens, UniProt P45983); test: In vitro kinase screening (Kinase HotSpot); type: biochemical; conditions: single dose of 10 µM
T7 construct: purchased Reaction Biology Corp
Excerpt: as §2

[17] = target: T8, GSK3b (Homo sapiens, UniProt P49841); test: In vitro kinase screening (Kinase HotSpot); type: biochemical; conditions: single dose of 10 µM
T8 construct: purchased Reaction Biology Corp
Excerpt: as §2

[18] = target: T9, CDK2/cyclin E (Homo sapiens, UniProt P24941); test: In vitro kinase screening (Kinase HotSpot); type: biochemical; conditions: single dose of 10 µM
T9 construct: purchased Reaction Biology Corp
Excerpt: as §2

[19] = target: T10, BRAF (V600E) (Homo sapiens, UniProt P15056, V600E); test: In vitro kinase screening (Kinase HotSpot); type: biochemical; conditions: single dose of 10 µM, BRAF (V599E) in Table 6, BRAF (V600E) in text
T10 construct: purchased Reaction Biology Corp
Excerpt: as §2

[20] = target: T11, JNK3 (Homo sapiens, UniProt P53779); test: In vitro kinase screening (Kinase HotSpot); type: biochemical; conditions: single dose of 10 µM
T11 construct: purchased Reaction Biology Corp
Excerpt: as §2

[21] = test system: A498 renal cancer cell line; test: NCI five-dose testing; type: cell-based; conditions: for IC (TGI): read-out: TGI (total growth inhibition concentration)
Protocol: as §1

[22] = test system: HOP-92 non-small cell lung cancer cell line; test: NCI five-dose testing; type: cell-based; conditions: for IC (TGI): read-out: TGI (total growth inhibition concentration)
Protocol: as §1

[23] = test system: U251 CNS cancer cell line; test: NCI five-dose testing; type: cell-based; conditions: for IC50: read-out: IC50; for IC (TGI): read-out: TGI (total growth inhibition concentration)
Protocol: as §1

[24] = test system: MDA-MB-468 breast cancer cell line; test: NCI five-dose testing; type: cell-based; conditions: for IC (TGI): read-out: TGI (total growth inhibition concentration)
Protocol: as §1

[25] = test system: SK-MEL-5 melanoma cell line; test: NCI five-dose testing; type: cell-based; conditions: for IC (TGI): read-out: TGI (total growth inhibition concentration)
Protocol: as §1

[26] = test system: OVCAR-4 ovarian cancer cell line; test: NCI five-dose testing; type: cell-based; conditions: for IC (TGI): read-out: TGI (total growth inhibition concentration)
Protocol: as §1

[27] = test system: K-562 leukaemia cell line; test: NCI five-dose testing; type: cell-based; conditions: for IC (TGI): read-out: TGI (total growth inhibition concentration)
Protocol: as §1

[28] = test system: HT-29 colon cancer cell line; test: NCI five-dose testing; type: cell-based; conditions: for IC50: read-out: IC50; for IC (TGI): read-out: TGI (total growth inhibition concentration)
Protocol: as §1

[29] = test system: PC-3 prostate cancer cell line; test: NCI five-dose testing; type: cell-based; conditions: for IC50: read-out: IC50; for IC (TGI): read-out: TGI (total growth inhibition concentration)
Protocol: as §1

[30] = test system: NCI-60 cell line panel; test: NCI-60 single-dose (10 µM) antiproliferative screening, mean over panel; type: cell-based; conditions: single-dose 10 µM, 60-cancer cell line screening
Protocol: as §1
The final target compounds were submitted to the National Cancer Institute (NCI), Maryland, USA[23]. Thirty-one compounds were selected to be tested over 60 cell lines at single dose 10 µM.

T2 sequence (Q16539 whole entry): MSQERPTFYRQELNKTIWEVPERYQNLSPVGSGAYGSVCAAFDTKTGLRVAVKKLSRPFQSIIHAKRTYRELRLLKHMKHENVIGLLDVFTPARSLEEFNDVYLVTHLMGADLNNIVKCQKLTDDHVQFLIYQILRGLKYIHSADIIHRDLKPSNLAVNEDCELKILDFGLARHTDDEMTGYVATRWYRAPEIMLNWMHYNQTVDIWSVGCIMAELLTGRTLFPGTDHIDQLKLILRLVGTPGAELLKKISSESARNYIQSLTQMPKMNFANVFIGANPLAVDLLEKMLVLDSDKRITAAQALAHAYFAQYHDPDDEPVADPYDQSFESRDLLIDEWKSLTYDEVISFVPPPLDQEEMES
T4 sequence (P45984 whole entry): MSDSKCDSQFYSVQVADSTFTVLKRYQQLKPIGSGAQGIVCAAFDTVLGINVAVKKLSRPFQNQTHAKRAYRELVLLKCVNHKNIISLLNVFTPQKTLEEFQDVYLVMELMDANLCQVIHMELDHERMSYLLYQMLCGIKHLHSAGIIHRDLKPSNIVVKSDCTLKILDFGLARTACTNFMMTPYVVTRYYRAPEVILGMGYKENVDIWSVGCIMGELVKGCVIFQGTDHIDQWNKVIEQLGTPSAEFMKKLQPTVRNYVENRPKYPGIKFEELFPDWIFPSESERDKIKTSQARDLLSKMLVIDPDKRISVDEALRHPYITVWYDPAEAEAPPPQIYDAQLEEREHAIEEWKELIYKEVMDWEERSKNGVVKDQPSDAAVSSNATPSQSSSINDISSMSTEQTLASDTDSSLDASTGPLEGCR
T10 sequence (P15056 whole entry V600E): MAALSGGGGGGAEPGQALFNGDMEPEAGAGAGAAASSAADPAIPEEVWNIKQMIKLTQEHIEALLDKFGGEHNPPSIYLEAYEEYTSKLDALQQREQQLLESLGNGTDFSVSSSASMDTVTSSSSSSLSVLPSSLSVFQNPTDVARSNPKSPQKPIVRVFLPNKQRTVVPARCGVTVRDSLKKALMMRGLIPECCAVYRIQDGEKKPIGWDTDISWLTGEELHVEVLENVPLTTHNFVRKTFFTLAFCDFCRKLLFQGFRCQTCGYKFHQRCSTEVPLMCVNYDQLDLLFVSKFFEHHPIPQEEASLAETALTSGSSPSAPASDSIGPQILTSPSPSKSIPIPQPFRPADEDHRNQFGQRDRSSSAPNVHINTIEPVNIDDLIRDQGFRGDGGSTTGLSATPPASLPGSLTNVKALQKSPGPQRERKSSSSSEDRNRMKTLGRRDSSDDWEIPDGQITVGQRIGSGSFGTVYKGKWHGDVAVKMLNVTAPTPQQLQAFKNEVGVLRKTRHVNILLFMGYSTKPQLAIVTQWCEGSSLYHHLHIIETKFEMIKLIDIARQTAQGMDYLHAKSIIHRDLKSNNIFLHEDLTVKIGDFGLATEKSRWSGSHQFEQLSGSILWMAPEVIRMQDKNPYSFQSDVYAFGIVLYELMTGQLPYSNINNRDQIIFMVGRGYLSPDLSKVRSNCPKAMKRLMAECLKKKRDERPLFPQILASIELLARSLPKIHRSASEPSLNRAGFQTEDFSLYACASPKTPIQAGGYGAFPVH
T7 sequence (P45983 whole entry): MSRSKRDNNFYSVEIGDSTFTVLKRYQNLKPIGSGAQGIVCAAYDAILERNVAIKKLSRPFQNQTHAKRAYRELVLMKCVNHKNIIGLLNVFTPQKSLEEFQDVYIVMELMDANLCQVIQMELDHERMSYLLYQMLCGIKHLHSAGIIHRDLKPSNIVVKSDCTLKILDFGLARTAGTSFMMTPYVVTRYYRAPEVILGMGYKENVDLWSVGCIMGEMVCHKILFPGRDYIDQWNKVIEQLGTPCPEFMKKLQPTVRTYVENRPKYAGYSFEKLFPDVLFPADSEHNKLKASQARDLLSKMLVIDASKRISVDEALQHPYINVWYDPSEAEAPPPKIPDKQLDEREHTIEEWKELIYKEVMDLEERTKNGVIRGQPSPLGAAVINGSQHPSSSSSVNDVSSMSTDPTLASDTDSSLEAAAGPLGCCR
T11 sequence (P53779 whole entry): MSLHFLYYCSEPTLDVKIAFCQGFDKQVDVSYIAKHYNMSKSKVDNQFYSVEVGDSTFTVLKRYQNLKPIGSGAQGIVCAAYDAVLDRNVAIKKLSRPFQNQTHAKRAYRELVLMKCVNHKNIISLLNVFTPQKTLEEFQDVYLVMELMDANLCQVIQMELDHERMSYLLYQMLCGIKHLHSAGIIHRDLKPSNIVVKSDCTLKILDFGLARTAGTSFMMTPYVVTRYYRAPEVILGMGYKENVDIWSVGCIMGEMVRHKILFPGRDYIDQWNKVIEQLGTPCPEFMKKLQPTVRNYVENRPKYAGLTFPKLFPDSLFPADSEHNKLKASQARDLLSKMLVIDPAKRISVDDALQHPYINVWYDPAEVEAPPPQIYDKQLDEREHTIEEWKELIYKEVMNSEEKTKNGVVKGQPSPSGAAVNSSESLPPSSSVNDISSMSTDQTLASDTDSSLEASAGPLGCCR
T8 sequence (P49841 whole entry): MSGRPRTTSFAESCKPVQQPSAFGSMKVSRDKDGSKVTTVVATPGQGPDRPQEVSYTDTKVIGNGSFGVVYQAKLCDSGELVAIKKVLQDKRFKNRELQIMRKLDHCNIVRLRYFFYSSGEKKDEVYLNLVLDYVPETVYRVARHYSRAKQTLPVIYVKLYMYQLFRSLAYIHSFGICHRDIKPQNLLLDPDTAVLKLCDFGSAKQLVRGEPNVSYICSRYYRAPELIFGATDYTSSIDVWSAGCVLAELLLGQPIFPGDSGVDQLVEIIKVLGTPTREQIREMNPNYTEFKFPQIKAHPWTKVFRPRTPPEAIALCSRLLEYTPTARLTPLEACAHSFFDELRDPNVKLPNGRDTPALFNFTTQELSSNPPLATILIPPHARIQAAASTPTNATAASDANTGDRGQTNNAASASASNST
T1 sequence (P15056 whole entry): as the sequence (P15056 whole entry V600E) above, with E600V counted along it
T5 sequence (P00533 25-1210): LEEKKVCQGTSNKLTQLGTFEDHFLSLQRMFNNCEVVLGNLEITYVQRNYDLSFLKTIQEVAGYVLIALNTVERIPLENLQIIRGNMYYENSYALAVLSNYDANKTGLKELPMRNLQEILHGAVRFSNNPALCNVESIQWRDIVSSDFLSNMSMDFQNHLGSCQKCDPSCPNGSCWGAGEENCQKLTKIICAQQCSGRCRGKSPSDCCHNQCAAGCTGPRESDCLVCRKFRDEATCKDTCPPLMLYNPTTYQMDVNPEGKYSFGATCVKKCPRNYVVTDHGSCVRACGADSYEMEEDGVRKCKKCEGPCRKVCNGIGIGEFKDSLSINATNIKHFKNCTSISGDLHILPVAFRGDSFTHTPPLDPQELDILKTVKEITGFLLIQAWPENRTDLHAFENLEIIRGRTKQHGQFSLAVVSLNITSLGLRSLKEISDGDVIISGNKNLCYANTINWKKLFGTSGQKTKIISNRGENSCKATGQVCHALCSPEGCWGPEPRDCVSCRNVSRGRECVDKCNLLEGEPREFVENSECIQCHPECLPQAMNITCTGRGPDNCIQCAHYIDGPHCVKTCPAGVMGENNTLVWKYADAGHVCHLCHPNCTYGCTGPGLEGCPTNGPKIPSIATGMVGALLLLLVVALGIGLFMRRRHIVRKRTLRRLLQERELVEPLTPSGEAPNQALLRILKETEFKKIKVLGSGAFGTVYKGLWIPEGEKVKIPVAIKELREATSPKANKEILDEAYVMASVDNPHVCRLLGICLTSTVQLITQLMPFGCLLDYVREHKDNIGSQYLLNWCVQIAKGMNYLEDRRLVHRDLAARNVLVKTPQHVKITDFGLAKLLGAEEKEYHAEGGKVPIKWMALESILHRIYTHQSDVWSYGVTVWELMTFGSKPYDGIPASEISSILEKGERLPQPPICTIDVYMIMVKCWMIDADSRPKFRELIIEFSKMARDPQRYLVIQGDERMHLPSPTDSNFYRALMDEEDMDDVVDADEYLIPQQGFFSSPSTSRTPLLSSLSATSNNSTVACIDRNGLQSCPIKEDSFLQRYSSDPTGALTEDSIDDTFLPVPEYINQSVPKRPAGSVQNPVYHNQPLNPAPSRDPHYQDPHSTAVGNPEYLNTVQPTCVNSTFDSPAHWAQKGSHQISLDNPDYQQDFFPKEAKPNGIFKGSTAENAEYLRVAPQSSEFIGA

O=S(=O)(NCCNc1cc(-c2cn(-c3ccccc3)nc2-c2cccc(O)c2)ccn1)c1ccc(Cl)cc1 [Compound 1l, 4-Chloro-N-(2-((4-(3-(3-hydroxyphenyl)-1-phenyl-1H-pyrazol-4-yl)pyridin-2-yl)amino)ethyl) benzenesulfonamide]
IC50 [1]: 2.44 µM
IC50 [2]: 3.03 µM
IC50 [3]: 2.38 µM
IC50 [4]: 2.48 µM
IC50 [5]: 3.16 µM
IC50 [6]: 2.85 µM
IC50 [7]: 2.46 µM
IC50 [8]: 3.29 µM
IC50 [9]: 3.18 µM
Inhibition % [10]: 21.28 ± 0.21%
Inhibition % [11]: 68.43 ± 0.59%
Inhibition % [12]: 7.80 ± 0.10%
Inhibition % [13]: 44.68 ± 0.01%
Inhibition % [14]: 10.33 ± 3.40%
Inhibition % [15]: 6.39 ± 0.35%
Inhibition % [16]: 53.79 ± 0.04%
Inhibition % [17]: 15.88 ± 0.21%
Inhibition % [18]: 8.36 ± 0.95%
Inhibition % [19]: 48.09 ± 0.45%
Inhibition % [20]: 35.70 ± 0.04%
IC50 ([21]; A498): 2.63 µM
LD50 (lethal dose 50) ([21]; A498): 57.1 µM
IC (TGI) ([21]; A498): 9.5 µM
IC50 ([22]; HOP-92): 2.34 µM
LD50 (lethal dose 50) ([22]; HOP-92): 70.5 µM
IC (TGI) ([22]; HOP-92): 8.3 µM
LD50 (lethal dose 50) ([23]; U251): 45.9 µM
IC50 ([23]; U251): 3.21 µM
IC (TGI) ([23]; U251): 11.4 µM
IC50 ([24]; MDA-MB-468): 2.78 µM
LD50 (lethal dose 50) ([24]; MDA-MB-468): >100 µM
IC (TGI) ([24]; MDA-MB-468): 7.66 µM
IC50 ([25]; SK-MEL-5): 2.02 µM
LD50 (lethal dose 50) ([25]; SK-MEL-5): 7.9 µM
IC (TGI) ([25]; SK-MEL-5): 4.0 µM
IC50 ([26]; OVCAR-4): 4.37 µM
LD50 (lethal dose 50) ([26]; OVCAR-4): >100 µM
IC (TGI) ([26]; OVCAR-4): >100 µM
IC50 ([27]; K-562): 1.98 µM
LD50 (lethal dose 50) ([27]; K-562): >100 µM
IC (TGI) ([27]; K-562): 5.4 µM
LD50 (lethal dose 50) ([28]; HT-29): 61.8 µM
IC50 ([28]; HT-29): 2.24 µM
IC (TGI) ([28]; HT-29): 5.2 µM
LD50 (lethal dose 50) ([29]; PC-3): >100 µM
IC50 ([29]; PC-3): 2.45 µM
IC (TGI) ([29]; PC-3): 12.0 µM

COc1cccc(-c2nn(-c3ccccc3)cc2-c2ccnc(NCCCNS(=O)(=O)c3cccc(F)c3)c2)c1 [Compound 2h, 3-Fluoro-N-(3-((4-(3-(3-methoxyphenyl)-1-phenyl-1H-pyrazol-4-yl)pyridin-2-yl)amino)propyl)benzenesulfonamide]
IC50 [1]: 3.18 µM
IC50 [2]: 4.65 µM
IC50 [3]: 4.14 µM
IC50 [4]: 3.49 µM
IC50 [5]: 5.01 µM
IC50 [6]: 4.49 µM
IC50 [7]: 4.69 µM
IC50 [8]: 3.88 µM
IC50 [9]: 4.25 µM
inhibition at 10 µM [30]: 76.8%
IC50 ([21]; Homo sapiens, A498): 3.52 µM
LC50 (lethal concentration 50%) ([21]; Homo sapiens, A498, read-out: LD50 (lethal dose 50)): > 100 µM
IC (TGI) ([21]; Homo sapiens, A498): > 100 µM
IC50 ([22]; Homo sapiens, HOP-92): 2.42 µM
IC (TGI) ([22]; Homo sapiens, HOP-92, HOP-92): > 100 µM
LD50 (lethal dose 50) ([22]; Homo sapiens, HOP-92, read-out: LD50 (lethal dose 50)): > 100 µM
CC50 ([23]; Homo sapiens, U-251, read-out: LD50 (lethal dose 50)): > 100 µM
IC50 ([23]; Homo sapiens, U-251, U251): 4.83 µM
IC (TGI) ([23]; Homo sapiens, U-251, U251): > 100 µM
IC50 ([24]; Homo sapiens, MDA-MB-468): 3.49 µM
CC50 ([24]; Homo sapiens, MDA-MB-468, read-out: LD50 (lethal dose 50)): > 100 µM
IC (TGI) ([24]; Homo sapiens, MDA-MB-468): 30.4 µM
IC50 ([25]; Homo sapiens, SK-MEL-5): 1.86 µM
LC50 (lethal concentration 50) ([25]; Homo sapiens, SK-MEL-5, read-out: LD50 (lethal dose 50)): 7.6 µM
IC (TGI) ([25]; Homo sapiens, SK-MEL-5): 3.7 µM
IC50 ([26]; Homo sapiens, OVCAR-4): 3.28 µM
LC50 (lethal concentration 50) ([26]; Homo sapiens, OVCAR-4, read-out: LD50 (lethal dose 50)): > 100 µM
IC (TGI) ([26]; Homo sapiens, OVCAR-4): > 100 µM
CC50 ([27]; Homo sapiens, K562, read-out: LD50 (lethal dose 50)): > 100 µM
IC50 ([27]; Homo sapiens, K562, K-562): 3.31 µM
IC (TGI) ([27]; Homo sapiens, K562, K-562): > 100 µM
CC50 ([28]; Homo sapiens, HT-29, read-out: LD50 (lethal dose 50)): > 100 µM
IC50 ([28]; Homo sapiens, HT-29): 2.87 µM
IC (TGI) ([28]; Homo sapiens, HT-29): 18.8 µM
LC50 (lethal concentration 50) ([29]; Homo sapiens, PC-3, read-out: LD50 (lethal dose 50)): > 100 µM
IC50 ([29]; Homo sapiens, PC-3): 2.97 µM
IC (TGI) ([29]; Homo sapiens, PC-3): > 100 µM
